Data: patent US10947196B2, “Beta adrenergic agonist and methods of using the same” (CURASEN THERAPEUTICS, INC., priority 2019, dated 2021)
Read-outs that look alike come from different tables or passages of the source.

How the values were obtained:
[1] = target: β2 adrenergic receptors in human astrocytoma cells (1321N1) (Homo sapiens (Human), UniProt P07550); test: cAMP HTRF assay in human astrocytoma cells (1321N1); format: cell-based; details: Endogenous receptor, 1321N1 cells
In short: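 Intracellular cAMP quantified by Eu-donor/d2-acceptor HTRF after 30 min compound exposure at 37° C in stimulation buffer with IBMX. Concentrations ran 10 μM top, 5-fold steps, 10 points. Cell lines: 1321N1 astrocytoma and CHO expressing β1 or β2; EC50 via four-parameter fit, relative efficacy against isoproterenol.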

[2] = Hepatocyte stability (mouse); format: in vitro ADME; details: 0.5×10^6 viable cells/mL
Experimental: 10 mM and 100 μM stock solutions of test compound(s) and a positive control were prepared in appropriate solvent (DMSO). In separate conical tubes, the 10 mM test compound and the positive control were diluted to 100 μM by combining 198 μL of 50% acetonitrile/50% water and 2 μL of 10 mM stock. The 100 μM test compound and the positive control were diluted to 30 μM by combining 140 μL of 50% acetonitrile/50% water and 60 μL of 100 μM stock solution. The 100 μM test compound and the positive control were diluted to 10 μM by combining 180 μL of 50% acetonitrile/50% water and 20 μL of 100 μM stock solution. The 100 μM test compound and the positive control were diluted to 3 μM by combining 194 μL of 50% acetonitrile/50% water and 6 μL of 100 μM stock solution.
Incubation medium (William's E Medium supplemented with GlutaMAX) and hepatocyte thawing medium was placed in a 37° C. water bath, and allowed to warm for at least 15 minutes prior to use. […]
Using AOPI staining solution, cells were counted and the viable cell density was determined. […]
All calculations were carried out using Microsoft Excel. Peak areas were determined from extracted ion chromatograms. […]
The in vitro half-life (in vitro t1/2) was determined from the slope value: in vitro t1/2=0.693/k

Sequence of β2 adrenergic receptors in human astrocytoma cells (1321N1) (P07550 whole entry): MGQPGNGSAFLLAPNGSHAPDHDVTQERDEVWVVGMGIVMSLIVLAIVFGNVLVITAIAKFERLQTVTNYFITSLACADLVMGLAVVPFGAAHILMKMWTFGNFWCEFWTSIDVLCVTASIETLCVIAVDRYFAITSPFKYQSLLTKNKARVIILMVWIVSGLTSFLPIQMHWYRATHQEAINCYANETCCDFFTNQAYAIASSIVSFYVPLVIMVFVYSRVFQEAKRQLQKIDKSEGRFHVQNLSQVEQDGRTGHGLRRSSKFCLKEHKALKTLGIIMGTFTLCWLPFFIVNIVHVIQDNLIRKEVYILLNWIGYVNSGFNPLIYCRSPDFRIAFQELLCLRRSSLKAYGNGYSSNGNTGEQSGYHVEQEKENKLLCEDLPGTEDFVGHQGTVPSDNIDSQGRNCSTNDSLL

Average pEC50 [Receptor subtype: Endogenous; Cell type: 1321N1] [1]	EC50 ([1]; read-out: Average EC50 [Receptor subtype: Endogenous, Cell type: 1321N1]) [nM]	SMILES	Hepatocyte stability, Mouse [2] [μL/min/10^6 cells]	EC50 ([1]; read-out: Average pEC50 [Receptor subtype: Endogenous, Cell type: 1321N1] (converted)) [nM]
C-B	10 to 100	CC(C)(C)NC[C@H](O)c1cccc(C#N)n1 [Compound 03-5, (S)-6-(2-(tert-butylamino)-1-hydroxyethyl)picolinonitrile]	1.46	
		Cc1ncccc1[C@@H](O)CNC(C)(C)C [Compound 03-115]	1.08	100 to 1000
